Here are results for 4 molecules from ChEMBL document CHEMBL4270552, “4-(Phenoxy) and 4-(benzyloxy)benzamides as potent and selective inhibitors of mono-ADP-ribosyltransferase PARP10/ARTD10” (Eur J Med Chem, 2018).

pIC50: −log10 of the molar value.

Test [1] concerns the target T1, Poly [ADP-ribose] polymerase tankyrase-2 (Homo sapiens, UniProt Q9H2K2).
T1 sequence (Q9H2K2 whole entry): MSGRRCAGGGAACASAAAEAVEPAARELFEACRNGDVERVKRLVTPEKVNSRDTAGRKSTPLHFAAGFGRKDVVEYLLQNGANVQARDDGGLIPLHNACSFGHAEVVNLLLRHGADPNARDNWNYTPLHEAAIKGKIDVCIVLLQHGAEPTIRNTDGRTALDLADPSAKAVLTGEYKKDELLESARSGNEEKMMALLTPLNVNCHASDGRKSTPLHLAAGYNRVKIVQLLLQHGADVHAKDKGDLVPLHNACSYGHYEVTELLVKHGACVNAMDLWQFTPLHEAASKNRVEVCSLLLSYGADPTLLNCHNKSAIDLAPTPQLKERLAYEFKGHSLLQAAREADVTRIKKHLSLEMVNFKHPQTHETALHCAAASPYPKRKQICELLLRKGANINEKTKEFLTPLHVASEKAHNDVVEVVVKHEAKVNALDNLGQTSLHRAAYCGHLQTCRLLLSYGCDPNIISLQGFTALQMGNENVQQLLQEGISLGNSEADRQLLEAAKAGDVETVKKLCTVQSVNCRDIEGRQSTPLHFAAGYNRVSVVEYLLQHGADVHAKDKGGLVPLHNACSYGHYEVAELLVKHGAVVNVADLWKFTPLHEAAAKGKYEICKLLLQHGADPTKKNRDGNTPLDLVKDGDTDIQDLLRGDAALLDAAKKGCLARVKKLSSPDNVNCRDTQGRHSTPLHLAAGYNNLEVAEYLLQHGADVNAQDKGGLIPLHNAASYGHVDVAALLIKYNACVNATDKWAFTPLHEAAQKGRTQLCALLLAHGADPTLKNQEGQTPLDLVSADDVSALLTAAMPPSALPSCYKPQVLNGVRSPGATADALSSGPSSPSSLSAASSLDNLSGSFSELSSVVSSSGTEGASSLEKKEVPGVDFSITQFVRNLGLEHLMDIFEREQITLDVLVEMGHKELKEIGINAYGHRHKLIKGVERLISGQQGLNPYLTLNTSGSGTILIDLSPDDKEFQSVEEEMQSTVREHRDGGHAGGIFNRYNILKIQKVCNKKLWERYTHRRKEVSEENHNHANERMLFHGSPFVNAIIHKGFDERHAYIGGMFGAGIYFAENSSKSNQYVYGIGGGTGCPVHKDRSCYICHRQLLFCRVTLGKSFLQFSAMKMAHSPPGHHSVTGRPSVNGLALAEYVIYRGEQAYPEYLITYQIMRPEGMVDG
Put plainly: Inhibition of N-terminal His-tagged Z-basic-fused human ARTD6 (873 to 1161 residues) expressed in Escherichia coli Rosetta2 (DE3) using TCEP as substrate after 18 hrs in presence of NAD+.

Test [2] has as its target T2, Protein mono-ADP-ribosyltransferase PARP3 (Homo sapiens, UniProt Q9Y6F1).
T2 sequence (Q9Y6F1 whole entry): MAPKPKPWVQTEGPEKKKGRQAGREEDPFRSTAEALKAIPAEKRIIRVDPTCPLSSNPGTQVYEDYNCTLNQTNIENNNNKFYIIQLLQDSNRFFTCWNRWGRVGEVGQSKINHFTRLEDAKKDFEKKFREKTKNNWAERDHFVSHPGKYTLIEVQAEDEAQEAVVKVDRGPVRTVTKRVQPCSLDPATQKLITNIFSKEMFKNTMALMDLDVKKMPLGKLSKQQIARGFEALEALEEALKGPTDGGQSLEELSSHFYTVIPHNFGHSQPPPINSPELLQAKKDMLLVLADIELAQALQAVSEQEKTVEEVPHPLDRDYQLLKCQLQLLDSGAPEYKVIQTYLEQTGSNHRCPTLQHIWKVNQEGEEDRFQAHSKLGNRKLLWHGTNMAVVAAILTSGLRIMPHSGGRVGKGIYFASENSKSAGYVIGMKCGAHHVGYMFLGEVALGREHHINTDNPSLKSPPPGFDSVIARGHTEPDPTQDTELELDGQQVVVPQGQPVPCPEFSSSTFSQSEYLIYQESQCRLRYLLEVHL
Nature of the test: Inhibition of N-terminal His-tagged thioredoxin-fused human ARTD3 (1 to 533 residues) expressed in Escherichia coli Rosetta2 (DE3) using DNA as substrate after 3 hrs in presence of NAD+.

For test [3], the target named is T3, Protein mono-ADP-ribosyltransferase PARP10 (Homo sapiens) (UniProt Q53GL7).
T3 sequence (whole entry): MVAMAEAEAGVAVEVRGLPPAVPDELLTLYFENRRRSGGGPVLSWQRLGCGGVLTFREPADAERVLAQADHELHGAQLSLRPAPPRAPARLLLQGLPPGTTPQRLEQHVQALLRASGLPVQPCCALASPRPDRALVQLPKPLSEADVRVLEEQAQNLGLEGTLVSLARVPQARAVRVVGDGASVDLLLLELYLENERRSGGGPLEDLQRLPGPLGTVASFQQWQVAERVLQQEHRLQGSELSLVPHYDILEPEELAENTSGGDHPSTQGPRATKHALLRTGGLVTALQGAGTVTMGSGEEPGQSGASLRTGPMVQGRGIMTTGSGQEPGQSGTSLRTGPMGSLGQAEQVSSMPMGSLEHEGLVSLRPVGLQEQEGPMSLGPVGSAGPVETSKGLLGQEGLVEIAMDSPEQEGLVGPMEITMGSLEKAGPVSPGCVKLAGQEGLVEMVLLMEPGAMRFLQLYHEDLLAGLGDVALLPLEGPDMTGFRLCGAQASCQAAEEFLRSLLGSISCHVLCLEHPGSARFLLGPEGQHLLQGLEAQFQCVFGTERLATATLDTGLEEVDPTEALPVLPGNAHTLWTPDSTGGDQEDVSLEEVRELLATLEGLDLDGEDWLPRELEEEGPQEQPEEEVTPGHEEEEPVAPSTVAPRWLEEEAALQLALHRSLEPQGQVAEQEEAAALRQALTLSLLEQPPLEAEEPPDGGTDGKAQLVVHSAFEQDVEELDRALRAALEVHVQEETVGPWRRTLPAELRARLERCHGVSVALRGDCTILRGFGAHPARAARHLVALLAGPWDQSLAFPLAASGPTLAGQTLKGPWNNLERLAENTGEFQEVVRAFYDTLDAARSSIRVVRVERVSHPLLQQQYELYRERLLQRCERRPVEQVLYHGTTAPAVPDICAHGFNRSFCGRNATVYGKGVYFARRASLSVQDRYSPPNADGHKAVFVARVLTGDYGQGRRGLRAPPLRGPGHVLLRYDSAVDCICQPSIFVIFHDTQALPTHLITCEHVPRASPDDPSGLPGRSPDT
Conditions: U2OS.
Description: Stabilization of ARTD10 in human U2OS cells assessed as increase in melting temperature at 10 uM by CESTA

In the case of `NC(=O)c1ccc(Oc2ccc(C(=O)O)cc2)cc1`, the pIC50 in test [1] and in test [2] was under 4.00 throughout.
Turning to `NC(=O)c1ccc(OCc2ccccc2F)cc1`, the Tm in test [3] was in the range of 54 to 56 °C. Besides, the pIC50 in test [1] and in test [2] was under 4.00 throughout.
For the molecule `NC(=O)c1ccc(Oc2ccc(C=O)cc2)cc1`, the Tm in test [3] was 54 to 56 °C. Moreover, the pIC50 (usually −log10 of the IC50, conventionally taken in molar units) is under 4.00 in test [1] and 4.07 in test [2].
For the molecule `COc1ccc(C(N)=O)cc1`, the pIC50 in test [1] and in test [2] was under 4.00 in each case.
